Laboratory results taken from patent US20160175313A1, “ENTECAVIR MICROSPHERES AND PHARMACEUTICAL COMPOSITION FOR PARENTERAL ADMINISTRATION CONTAINING SAME” (priority 2013, published 2016).

Tests used:
rats = test system: rats
Method: A test was conducted to determine whether local irritation is caused by subcutaneous administration of entecavir into rats.
After entecavir (2.33 mg/kg/day) was subcutaneously injected into 15 male rats per each group, mortality, common symptoms, body weight, autopsy and histopathological evaluation on 1, 4, 5, 8 and 12 weeks were checked to compare with the control group in which excipient was administered.

[1] = orally administered; cited from earlier work
HBV = details: first-time patients, oral preparations, cited from earlier work
[2] = Solubility of entecavir in organic solvent; format: physicochemical
[3] = rat, in vivo, sc, 2.33 mg/kg/day

SMILES: C=C1[C@H](CO)[C@@H](O)C[C@@H]1n1cnc2c(=O)[nH]c(N)nc21 [entecavir, Entecavir]
- mortality (rats; male rats, 2.33 mg/kg/day subcutaneous, checked up to 12 weeks): no dead animal was observed
- local toxicity, overall conclusion (rats; rat, in vivo, sc): did not show harmful local toxicity
- abnormal symptoms and abnormal body weight change related to administration (rats; [3]): not observed
- autopsy results (rats; [3]): no abnormal finding
- inflammation (histopathology) (rats; [3]): inflammation was observed
- recovery from inflammation (rats; [3]): all animals recovered from inflammation
- injection site microscopy (H&E staining), inflammatory cells (rats; rats, 4 weeks after subcutaneous administration, 2.33 mg/kg/day): some subcutaneous tissue inflammatory cells were observed
- bioavailability [1]: ~100%
- patients HBV-undetectable after 1 year of administration (HBV; 1 year): about 70%
- patients HBV-undetectable after 3 years (HBV; 3 years): about 90%
- solubility in methylene chloride [2]: insoluble
